Our source for the IC50 values is ChEMBL document CHEMBL2396623, “Direct targeting of β-catenin: Inhibition of protein-protein interactions for the inactivation of Wnt signaling” (Bioorg Med Chem, 2013).

Bounds are passed on as bounds.

The target of the experiment is T1, Catenin beta-1 (Homo sapiens, UniProt P35222).
T1 sequence (P35222 whole entry): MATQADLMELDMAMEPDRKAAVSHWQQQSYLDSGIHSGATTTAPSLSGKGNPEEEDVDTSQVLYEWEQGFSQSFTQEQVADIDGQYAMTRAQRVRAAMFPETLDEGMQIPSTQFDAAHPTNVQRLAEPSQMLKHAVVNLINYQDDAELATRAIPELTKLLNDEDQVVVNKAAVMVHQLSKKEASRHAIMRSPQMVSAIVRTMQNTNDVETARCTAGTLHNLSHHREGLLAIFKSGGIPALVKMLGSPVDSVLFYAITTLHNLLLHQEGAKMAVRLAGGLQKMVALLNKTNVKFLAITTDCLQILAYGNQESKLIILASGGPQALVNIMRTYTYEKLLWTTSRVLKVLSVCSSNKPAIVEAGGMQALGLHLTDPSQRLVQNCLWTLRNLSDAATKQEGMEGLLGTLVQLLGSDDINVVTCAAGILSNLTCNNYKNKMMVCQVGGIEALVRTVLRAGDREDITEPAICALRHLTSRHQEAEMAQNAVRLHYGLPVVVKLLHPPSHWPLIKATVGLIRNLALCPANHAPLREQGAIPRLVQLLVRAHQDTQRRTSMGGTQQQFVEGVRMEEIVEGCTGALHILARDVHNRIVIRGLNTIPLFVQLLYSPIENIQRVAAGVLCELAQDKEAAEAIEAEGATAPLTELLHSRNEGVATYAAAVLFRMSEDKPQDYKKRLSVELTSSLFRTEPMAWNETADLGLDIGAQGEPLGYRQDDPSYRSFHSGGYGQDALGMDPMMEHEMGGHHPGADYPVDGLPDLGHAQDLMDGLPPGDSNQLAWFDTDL
In words: Inhibition of GST-tagged Tcf4 binding to human beta-catenin after 2 hrs by ELISA.
Regarding `CCCC(=O)c1cc2c(c(O)c1C)C(=O)C(=O)c1c(O)cccc1-2`, the IC50 was less than 10 µM.

Take `COC(=O)c1c(C)cc2c(c1O)[C@]1(O)C(=O)c3cc4c(c(O)c3C(=O)[C@]1(OC)[C@H](O)C2)C(=O)C=C(N[C@@H]1O[C@H](C)[C@@H](OC)[C@H](O)[C@@H]1OC)C4=O`: the concentration for half-maximal inhibition (IC50) is less than 10 µM.

With `COc1c(CC(C)OC(=O)c2c(C)cc(O)cc2O)c2c3c(CC(C)OC(=O)c4c(C)cc(O)cc4O)c(OC)c(=O)c4c(O)cc(OC)c(c5c(OC)cc(O)c(c1=O)c52)c43` (centres undefined), the IC50 is less than 10 µM.

The compound `COc1c(C[C@@H](C)OC(=O)Oc2ccc(O)cc2)c2c3c(C[C@@H](C)OC(=O)c4ccccc4)c(OC)c(=O)c4c(O)cc(OC)c(c5c(OC)cc(O)c(c1=O)c52)c43` [CALPHOSTIN C] registered a concentration for half-maximal inhibition (IC50) of less than 10 µM.
